In US20170298209A1, “USE OF A QUINONE COMPOUND IN BUILDING MATERIALS” (Arkion Life Sciences, LLC, priority 2014, published 2017):

Assays:
[1] = Solubility of the quinone compound in aqueous solution / solvents; type: physicochemical
Excerpt: The quinone compound can be applied to the substrate in the form of a solution. The solution can be an aqueous or semi-aqueous solution. The quinone compound can be soluble or semi-soluble in the solution. Depending on the pH of the solution the quinone compound can be soluble or partially soluble. The partially soluble quinone can exist as either suspended crystalline particles, fine particles, colloidal particles, etc. […] This compound can exist in solution as particles, crystals, colloids, etc. In some embodiments, the semi-aqueous or non-aqueous solutions containing suitable particles, crystals, colloids, etc. can be used to achieve penetration of a quinone compound into and under the surface of a substrate.
(§1) A power pole made from southern yellow pine is treated with a sodium salt of 9,10 dihyroxyanthracene (also known as AHQ or anthrahydroquinone) to render the pole resistant to pest and/or fungal damage. The sodium salt of 9,10 dihyroxyanthracene is stable in an oxygen free and high pH environment (e.g., above pH 11). In the high pH solution, the compound has a solubility of around 10% (wt/v). A 10% solution of AHQ is prepared in an aqueous solution having a pH of about 12. The pole is soaked in the bath of 10% AHQ for about 20-30 minutes at 70-80° C. with little or no air exposure. A portion of the AHQ penetrates into the top layer of the pole. The depth of penetration can range from 1 mm to 200 mm.
(§2) After soaking, the pole is transferred to a water tank where the surface would be neutralized. The water having a nominal pH of about 7. Alternatively, the pole is dried in air without rinsing. AHQ is unstable in the presence of air (e.g., oxygen) unless it is maintained in a high pH solution. If exposed to a lower pH or air (e.g., oxygen), the AHQ can be converted to 9,10 anthraquinone (also known as AQ). AQ is insoluble in almost every solvent including water. Therefore, AQ precipitates out of solution and becomes trapped in the top layer of the pole. AQ forms both on the surface and inside the wood fibers of the upper layers of the pole. This outer layer of pole is now both termite and woodpecker proof. Because anthraquinones can be effective fungicides, the pole is now also fungi proof.

[2] = Stability of AHQ towards air (oxygen) and pH; type: physicochemical
Procedure: as §1
as §2, with “This outer layer of pole is now both termite and woodpecker proof. Because anthraquinones can be effective fungicides, the pole is now also fungi proof.” left out

[3] = test system: Pileated woodpeckers; assay: Caged Pileated woodpecker trials (two-choice then one-choice test) with treated and untreated utility pole sections; type: in vivo, Pileated woodpecker (Dryocopus pilealus); details: poles treated with AHQ versus untreated poles; FIGS. 2-4
Procedure: Overview. A series of caged Pileated woodpecker trials are conducted using power pole segments both untreated and treated with a quinone. The treatment segments contain the quinone compound in a range of concentrations. The quinone compound is also applied by either painting or soaking. The quinone compound is applied in a high pH solution (i.e., in a water soluble form). Thereafter, the segments are treated with a lower pH solution to convert the quinone to a water insoluble form. The bird's preference to nest building excavation for each segment is measured. Both the soaked and painted segments show lower incidence of nesting evacuation. […]
The initial placement of the treated and the untreated poles in each enclosure was randomly determined. […] At the beginning of each test day, starting on day 2 (0800), woodpecker damage to each pole was measured by collecting and weighing the wood chips that were removed. […] The camera recorded woodpecker activity on poles for during the first two hours of each day during the test period. […]
The weight of wood chips removed by Pileated woodpeckers follow a three-factor repeated measures design, where observations are repeated on each bird for all three factors: treatment (chemical) time (pre and post-treatment), and pole (control and treated)). All data was analyzed as mixed liner models. […]

Oc1c2ccccc2c(O)c2ccccc12 [9,10-anthrahydroquinone]
solubility in aqueous solutions ([1]; slightly basic or neutral pH values): only slightly soluble or insoluble

[Na+].[Na+].[O-]c1c2ccccc2c([O-])c2ccccc12 [AHQ, sodium salt of 9,10 dihyroxyanthracene]
stability ([2]; oxygen free and high pH environment (e.g., above pH 11)): stable
stability ([2]; presence of air (e.g., oxygen), unless maintained in a high pH solution): unstable
solubility in aqueous solutions ([1]; high pH (e.g., pH 11 or more)): readily soluble
solubility ([1]; in the high pH solution (e.g., above pH 11)): around 10 % (wt/v)
weight of wood chips removed from poles [3]: surprisingly less than the weight of wood chips removed from untreated poles

O=C1c2ccccc2C(=O)c2ccccc21 [AQ, 9,10 anthraquinone]
solubility in solvents [1]: insoluble
